“Also recorded” adds a separate entry of the source. Like-named read-outs stand apart in the source and are kept apart here.
Tests used:
[1] = test system: MeCP2 S421 phosphorylation; test: In vivo hypoxic seizure (HS)-induced MeCP2 S421 phosphorylation in P10 rats; parameters: species or system rat; conditions: for MeCP2 S421 phosphorylation 3 hrs post-HS: P10 rats, normalized to mean C+V control (100±8%), HS+V 157±11%, 20 mg/kg NBQX, 20 mg/kg IEM-1460, nimodipine 10 mg·kg, i.p.; for Baseline MeCP2 phosphorylation in control rats: control rats without HS
Method: (§1) Nuclei were isolated as previously described (81). […] Blots were incubated with the following primary antibodies: MeCP2 (S421) (1:1000) and total-MeCP2 (1:1000, kind gifts from Dr. Michael Greenberg, Harvard Medical School), phospho-CaMKII (T286) (1:250, Cell Signaling), pan-CaMKII (1:250, Cell Signaling), ([…] (1:5000, Sigma), and lamin A/C (1:1000, Cell Signaling).

[2] = test system: MeCP2 S421 phosphorylation; test: KCl-induced MeCP2 S421 phosphorylation, immunoblot, cortical cultures; assay type: cell-based, rat
Method: as §1

[3] = test system: MeCP2 S421 phosphorylation; test: KCl-induced MeCP2 S421 phosphorylation, immunoblot, hippocampal cultures; assay type: cell-based, rat
Method: as §1

[4] = test system: MeCP2 S421 phosphorylation; test: KA-induced MeCP2 S421 phosphorylation, immunoblot, cortical E18+10DIV cultures; assay type: cell-based, rat; conditions: Ctx
Method: as §1

[5] = test system: MeCP2 S421 phosphorylation; test: KA-induced MeCP2 S421 phosphorylation, immunoblot, hippocampal E18+10DIV cultures; assay type: cell-based, rat; conditions: H
Method: as §1

[6] = test system: CaMKII T286 phosphorylation; assay type: cell-based
Method: as §1

GluA2-lacking AMPAR = test: AMPAR eEPSC currents in CDKL5 R59X mouse model; assay type: cell-based
CaMKII phosphorylation = test: In vivo hypoxic seizure-induced CaMKII phosphorylation; conditions: HS model
Method: as §1

PTZ-induced seizures = conditions: in vivo; cited from earlier work
CDKL5 R59X mouse = test: Behaviour of CDKL5 R59X mice after acute in vivo treatment
[7] = test system: E18+10DIV cultured hippocampal neurons; test: Fura-2 ratiometric Ca2+ imaging of KA-induced Ca2+ influx, hippocampal cultures; assay type: cell-based, rat; conditions: hippocampus
Method: (§2) Ratiometric Ca^2+ imaging was performed on E17/18+10 DIV hippocampal and cortical cultures, plated at 1×10^5 cells/well in 24 well plates. […] After 10 min bathed in 100 μM D-APV (Tocris), cells were stimulated using fast (<2 min) bath application of 30 μM kainate (KA). […] Changes in Ca^2+ influx were assessed by change in 340/380 nm excitation ratio from baseline in individual somas (using regions of interests) in NisElements software (see Supp. Methods).

[8] = test system: E18+10DIV cultured cortical neurons; test: Fura-2 ratiometric Ca2+ imaging of KA-induced Ca2+ influx, cortical cultures; assay type: cell-based, rat; conditions: cortex
Method: as §2

[9] = test system: primary auditory cortex (AI) silent synapses; test: PTZ-ELS auditory cortex critical period plasticity; assay type: in vivo; conditions: PTZ P9-11; 1 dose following seizure induction each day
tdTom+ cells = test: tdTom+ cell labelling after PTZ seizures at P9-11 in FosTRAP mice; assay type: in vivo, mouse; conditions: NBQX 1 hr post PTZ stage 5 seizures; preliminary cohort n=3/group
Method: Seizures will be induced as described above. For the KA model, beginning 1 hour after KA seizure, mice will receive doses of either NBQX (20 mg/kg i.p.), […] IEM 1460 (10 mg/kg i.p.), or saline every 12 hrs×4 doses as per prior protocols with ELS. For the PTZ model, we will follow our prior protocol, and deliver the NBQX (20 mg/kg i.p.), IEM 1460 (10 mg/kg i.p.) or saline at 1 hr post seizure on P9, P10, and […] (FIG. 33). Mice will be euthanized at P15, P30, or P60. Two sets of groups will be prepared (n=12/group): the first for perfusion and subsequent IHC to determine whether treatment decreases the number of tdTom+ cells. Confocal imaging of at least 2 fields/section and 3 sections/mouse in defined areas of hippocampal CA subfields and dentate gyrus (hippocampus: Bregma −1.46 to −2.70 mm (interaural 2.34 mm-1.1 mm) or primary auditory cortex (Bregma −2.18 mm to −3.64 mm (interaural 1.5 mm to 0.16 mm) will be used. MAP2, Iba-1, GFAP, and GAD67 will be used to confirm cell identity. Cell counts will be performed using ImageJ software and group differences analyzed by 2-way ANOVA/Bonferroni correction. Multivariate linear and logistic regression will be used to evaluate effects of age, gender, treatment groups and seizure severity in ELS. […]

[10] = test system: hypoxic seizure (HS) model; conditions: post-seizure in vivo treatment; previously shown (6, 12); cited from earlier work
[11] = test system: hippocampal CA1 AMPAR function, silent synapses, LTP; test: Hippocampal slice electrophysiology after P10 hypoxic seizures, post-seizure treatment; assay type: in vivo, rat
Method: FIG. 23 ELS induce altered hippocampal CA1 AMPAR function, silent synapses, and synaptic plasticity. Hippocampal brains slices removed at 48-72 h after P10 hypoxic seizures (HS) cause (A) enhanced AMPAR-mediated sEPSCs, (B) inwardly rectifying AMPAR eEPSCs, and (C) a precocious loss of silent synapses indicated by both decreased failure rates and silent synapse fraction. These changes yield attenuated synaptic plasticity both in early-life and as adults: (D) reduced eEPSC amplitude in post-HS 48-72 hrs from whole-cell LTP pairing protocol; (E,F) decreased potentiation from extracellular LTP recordings.

[12] = KA 100 μM, in the presence of APV, NBQX, NASPM 150 μM, nimodipine 5 μM
[13] = KA 100 μM, 100 μM D-APV alone, vs. KA, NaOH+DMSO treated controls
[14] = KA-induced, 5 μM KN93, KN92 5 μM, EGTA 1 mM
[15] = KA+APV plus NBQX 50 μM or NASPM 150 μM, vs. KA+APV condition (100±3%)

COCCOC(=O)C1=C(C)NC(C)=C(C(=O)OC(C)C)C1c1cccc([N+](=O)[O-])c1 (centres unmarked) [nimodipine]
MeCP2 S421 phosphorylation 3 hrs post-HS [1]: 103±9% | KCl-mediated MeCP2 phosphorylation ([2]; Ctx, in the presence of D-APV): 10±6% | KCl-mediated MeCP2 phosphorylation ([3]; H, in the presence of D-APV): 0±1% | MeCP2 S421 phosphorylation [4, 12]: 4±1% | MeCP2 S421 phosphorylation [5, 12]: 21±6% | KA-induced CaMKII phosphorylation ([6]; Ctx, in the presence of D-APV): 23±9% | KA-induced CaMKII phosphorylation ([6]; H, in the presence of D-APV): 33±6%

Br.C[N+](C)(C)CCCCCNCC12CC3CC(CC(C3)C1)C2.[Br-] [IEM-1460]
MeCP2 S421 phosphorylation 3 hrs post-HS [1]: 106±11% | Baseline MeCP2 phosphorylation in control rats [1]: did not affect | Enhanced AMPAR currents (GluA2-lacking AMPAR): decreased; also recorded: attenuated | Seizure-induced CaMKII phosphorylation in vivo (CaMKII phosphorylation): prevented | Effect in PTZ-induced seizures (PTZ-induced seizures): anti-seizure effects | Activity-dependent MeCP2 phosphorylation in cultured neurons in vitro ([4]; p<0.0049, stimulus and concentration not stated): reduced | Activity-dependent MeCP2 phosphorylation in cultured neurons in vitro ([5]; p<0.0361, stimulus and concentration not stated): reduced | Seizure behavior latency (CDKL5 R59X mouse): rescued | Autistic like impairment in social behavior / social deficits (CDKL5 R59X mouse; acute in vivo treatment): rescued; also recorded: improves | Spatial and temporal working memory in Y maze (% spontaneous alternating behavior) (CDKL5 R59X mouse; acute in vivo treatment): rescued; also recorded: improves

N[C@H](CCCP(=O)(O)O)C(=O)O [D-APV]
KCl-mediated MeCP2 phosphorylation ([2]; cortical neurons, 10 DIV, D-APV alone): 87±21% | KCl-mediated MeCP2 phosphorylation ([3]; hippocampal neurons, 10 DIV, D-APV alone): 73±21% | KA-induced Ca2+ influx, normalized mean peak ratio ([7]; KA 30 μM, D-APV 100 μM, normalized to KA only (100±3%)): 73±3% | KA-induced Ca2+ influx, normalized mean peak ratio ([8]; KA 30 μM, D-APV 100 μM, normalized to KA only (100±2%)): 74±3% | MeCP2 S421 phosphorylation [4, 13]: 76±13% | MeCP2 S421 phosphorylation [5, 13]: 89±13% | KA-induced CaMKII phosphorylation ([6]; Ctx, pre-treatment with D-APV alone): 81±11% | KA-induced CaMKII phosphorylation ([6]; H, pre-treatment with D-APV alone): 86±9%

NCCCNCCCCNCCCNC(=O)Cc1cccc2ccccc12 [NASPM, 1-Napthylacetyl Spermine]
KCl-mediated MeCP2 phosphorylation ([2]; Ctx, in the presence of D-APV): 32±13% | KCl-mediated MeCP2 phosphorylation ([3]; H, in the presence of D-APV): 11±6% | MeCP2 S421 phosphorylation [4, 12]: 12±2% | MeCP2 S421 phosphorylation [5, 12]: 30±9% | KA-induced CaMKII phosphorylation ([6]; Ctx, in the presence of D-APV): 25±5% | KA-induced CaMKII phosphorylation ([6]; H, in the presence of D-APV): 28±7%

CC(=O)OCOC(=O)CN(CCOCCOCCN(CC(=O)OCOC(C)=O)CC(=O)OCOC(C)=O)CC(=O)OCOC(C)=O [EGTA-AM]
Phosphorylation of MeCP2 S421 ([4]; 100 μM EGTA-AM, p=0.0001): reduced | Phosphorylation of MeCP2 S421 ([5]; 100 μM EGTA-AM, p=0.0057): reduced

COc1ccc(S(=O)(=O)N(CCO)c2ccccc2CN(C)C/C=C/c2ccc(Cl)cc2)cc1 [KN93]
MeCP2 S421 phosphorylation [4, 14]: 10±3% | MeCP2 S421 phosphorylation [5, 14]: 3±1%

COc1ccc(S(=O)(=O)Nc2ccccc2CN(C)C/C=C/c2ccc(Cl)cc2)cc1 [KN92]
MeCP2 S421 phosphorylation [4, 14]: 99±3% | MeCP2 S421 phosphorylation [5, 14]: 97±3%

O=C(O)CN(CCOCCOCCN(CC(=O)O)CC(=O)O)CC(=O)O [EGTA]
MeCP2 S421 phosphorylation [4, 14]: 72±7% | MeCP2 S421 phosphorylation [5, 14]: 66±7%

NS(=O)(=O)c1cccc2c1c([N+](=O)[O-])cc1nc(O)c(O)nc12 [NBQX]
Subsequent A1 plasticity [9]: permits | Synapse unsilencing [9]: prevents | Number of tdTom+ cells (tdTom+ cells): decrease; also recorded: reduction | MeCP2 S421 phosphorylation 3 hrs post-HS [1]: 81±8% | Baseline MeCP2 phosphorylation in control rats [1]: did not affect | KCl-mediated MeCP2 phosphorylation ([2]; Ctx, in the presence of D-APV): 35±5% | KCl-induced phosphorylation of MeCP2 S421 ([2]; cortex, NBQX alone, p=0.0069): reversed | KCl-mediated MeCP2 phosphorylation ([3]; H, in the presence of D-APV): 21±6% | KCl-induced phosphorylation of MeCP2 S421 ([3]; hippocampus, NBQX alone, p=0.0003): reversed | Seizure-induced CaMKII phosphorylation in vivo (CaMKII phosphorylation): prevented | Remaining NMDAR-insensitive Ca2+ influx [7, 15]: 31±2% | Remaining NMDAR-insensitive Ca2+ influx [8, 15]: 3±2% | MeCP2 S421 phosphorylation [4, 12]: 0±0.3% | Later-life seizures, altered synaptic plasticity, and autistic-like social deficits [10]: prevents | Impaired LTP ([11]; 48-72 hr post HS and as P60 adults): protects | Enhanced AMPAR function following ELS ([11]; post-seizure treatment): attenuates | Premature silent synapse loss ([11]; post-seizure treatment): reverses | MeCP2 S421 phosphorylation [5, 12]: 3±5% | KA-induced CaMKII phosphorylation ([6]; Ctx, in the presence of D-APV): 18±4% | KA-induced CaMKII phosphorylation ([6]; H, in the presence of D-APV): 21±3%

From patent publication US20220047532A1, “AMPA RECEPTOR ANTAGONISTS SPECIFIC FOR CALCIUM PERMEABLE AMPA RECEPTORS AND METHODS OF TREATMENT THEREWITH” (priority 2018, published 2022)
